Structures are written as SMILES.

This assay has as its target Human RSK2 (Homo sapiens (Human), UniProt P51812). Put plainly: Human RSK2 assay (Kinase Glo Plus, residual ATP).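 Also: recombinant human RSK2 phosphorylating a substrate peptide, 90 min at 28 °C, leftover ATP read by luminescence, RLU scaled between no-kinase background and uninhibited kinase controls, 4-parameter fit.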 It counts as biochemical. On the technique in general: In Kinase-Glo more light means more ATP remaining.

Sequence of Human RSK2 (P51812 whole entry): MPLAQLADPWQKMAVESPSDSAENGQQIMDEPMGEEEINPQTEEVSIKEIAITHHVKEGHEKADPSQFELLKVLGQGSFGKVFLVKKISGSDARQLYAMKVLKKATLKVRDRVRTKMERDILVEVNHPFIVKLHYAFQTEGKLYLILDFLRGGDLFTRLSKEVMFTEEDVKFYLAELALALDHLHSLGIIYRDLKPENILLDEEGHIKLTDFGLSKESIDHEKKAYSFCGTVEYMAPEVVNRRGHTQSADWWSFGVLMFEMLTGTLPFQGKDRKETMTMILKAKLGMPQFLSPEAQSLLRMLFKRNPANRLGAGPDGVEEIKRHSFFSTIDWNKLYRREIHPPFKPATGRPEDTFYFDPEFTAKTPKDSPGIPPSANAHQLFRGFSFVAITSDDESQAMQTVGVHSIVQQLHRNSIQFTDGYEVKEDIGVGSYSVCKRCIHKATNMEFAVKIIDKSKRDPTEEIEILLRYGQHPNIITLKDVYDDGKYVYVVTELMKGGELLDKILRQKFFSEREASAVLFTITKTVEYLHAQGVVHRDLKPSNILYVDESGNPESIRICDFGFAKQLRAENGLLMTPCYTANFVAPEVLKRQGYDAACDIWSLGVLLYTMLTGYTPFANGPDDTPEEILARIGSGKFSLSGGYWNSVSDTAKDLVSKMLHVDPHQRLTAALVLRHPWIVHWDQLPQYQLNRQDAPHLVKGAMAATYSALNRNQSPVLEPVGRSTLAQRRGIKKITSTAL

Turning to `CC1CNC(=O)c2cc3ccc(C(=O)Nc4nc5ccccc5n4CCCN(C)C)cc3n21` (stereo not shown) [Example 100, N-{1-[3-(dimethylamino)propyl]-1H-benzimidazol-2-yl}-4-methyl-1-oxo-1,2,3,4-tetrahydropyrazino[1,2-a]indole-7-carboxamide], the IC50 – broadly, the concentration at which inhibition is half-maximal – came to 1.3 nM. The same measure for `NC(=O)c1ccccc1NC(=O)c1ccc2cc3n(c2c1)CCCNC3=O` [Example 215, N-(2-carbamoylphenyl)-1-oxo-2,3,4,5-tetrahydro-1H-[1,4]diazepino[1,2-a]indole-8-carboxamide]: 21 nM; for `CC(C)(CO)n1c(NC(=O)c2ccc3cc4n(c3c2)CCCNC4=O)nc2ccccc21` [Example 66, N-[1-(1-hydroxy-2-methylpropan-2-yl)-1H-benzimidazol-2-yl]-1-oxo-2,3,4,5-tetrahydro-1H-[1,4]diazepino[1,2-a]indole-8-carboxamide]: 610 nM.

For `N#Cc1ccc(NC(=O)c2ccc3cc4n(c3c2)CCCNC4=O)cc1` [Example 185, N-(4-cyanophenyl)-1-oxo-2,3,4,5-tetrahydro-1H-[1,4]diazepino[1,2-a]indole-8-carboxamide], the IC50 stood at 106 nM. The same measure for `Cc1cc(NC(=O)c2ccc3cc4n(c3c2)CC2(CCC2)CNC4=O)no1` [Example 170, N-(5-methyl-1,2-oxazol-3-yl)-1′-oxo-2′,3′-dihydro-1′H-spiro[cyclobutane-1,4′-[1,4]diazepino[1,2-a]indole]-8′-carboxamide]: 1300 nM; for `C[C@H]1CNC(=O)c2cc3ccc(C(=O)Nc4cnn(Cc5ccccc5)c4)cc3n2[C@H]1C` (relative stereo) [Example 136, N-(1-benzyl-1H-pyrazol-4-yl)-cis-4,5-dimethyl-1-oxo-2,3,4,5-tetrahydro-1H-[1,4]diazepino[1,2-a]indole-8-carboxamide]: 9.3 nM; for `CN(C)c1cccc(Cn2cc(NC(=O)c3ccc4cc5n(c4c3)CCCNC5=O)cn2)c1` [Example 120, N-{1-[3-(dimethylamino)benzyl]-1H-pyrazol-4-yl}-1-oxo-2,3,4,5-tetrahydro-1H-[1,4]diazepino[1,2-a]indole-8-carboxamide]: 3.8 nM. Take `CNC(=O)c1ccccc1NC(=O)c1ccc2cc3n(c2c1)CCCNC3=O` [Example 229, N-[2-(methylcarbamoyl)phenyl]-1-oxo-2,3,4,5-tetrahydro-1H-[1,4]diazepino[1,2-a]indole-8-carboxamide]: the IC50 was 154 nM.

For the compound `Cc1cnc(NC(=O)c2ccc3cc4n(c3c2)CCCNC4=O)s1` [Example 106, N-(5-methyl-1,3-thiazol-2-yl)-1-oxo-2,3,4,5-tetrahydro-1H-[1,4]diazepino[1,2-a]indole-8-carboxamide], the IC50 amounted to 300 nM.

As to `O=C(Nc1cnn(Cc2ccccc2)c1)c1ccc2cc3n(c2c1)CC1(CCOCC1)CNC3=O` [Example 31, N-(1-benzyl-1H-pyrazol-4-yl)-1-oxo-2,2′,3,3′,5′,6′-hexahydro-1H-spiro[1,4-diazepino[1,2-a]indole-4,4′-pyran]-8-carboxamide], the IC50 was determined as 900 nM. The same measure for `CC(C)(C)c1cnc(NC(=O)c2ccc3cc4n(c3c2)CCCNC4=O)o1` [Example 111, N-(5-tert-butyl-1,3-oxazol-2-yl)-1-oxo-2,3,4,5-tetrahydro-1H-[1,4]diazepino[1,2-a]indole-8-carboxamide]: 1800 nM. The same measure for `CC(C)n1ncc2cc(NC(=O)c3ccc4cc5n(c4c3)CCCNC5=O)cnc21` [Example 19, 1-oxo-N-[1-(propan-2-yl)-1H-pyrazolo[3,4-b]pyridin-5-yl]-2,3,4,5-tetrahydro-1H-[1,4]diazepino[1,2-a]indole-8-carboxamide]: 53 nM; for `Cc1ccc(-c2cccc(NC(=O)c3ccc4cc5n(c4c3)CCCNC5=O)c2)s1` [Example 228, N-[3-(5-methylthiophen-2-yl)phenyl]-1-oxo-2,3,4,5-tetrahydro-1H-[1,4]diazepino[1,2-a]indole-8-carboxamide]: 4100 nM; for `COc1ccccc1NC(=O)c1ccc2cc3n(c2c1)CCCNC3=O` [Example 147, N-(2-methoxyphenyl)-1-oxo-2,3,4,5-tetrahydro-1H-[1,4]diazepino[1,2-a]indole-8-carboxamide]: 400 nM.

With `CC1CCNC(=O)c2cc3ccc(C(=O)Nc4nc5ccccc5[nH]4)cc3n21` (stereo not shown) [Example 58, N-(1H-benzimidazol-2-yl)-5-methyl-1-oxo-2,3,4,5-tetrahydro-1H-[1,4]diazepino[1,2-a]indole-8-carboxamide], the IC50 was determined as 0.77 nM.

Turning to `CCn1c(NC(=O)c2ccc3cc4n(c3c2)[C@@H](C)[C@@H](C)NC4=O)nc2ccccc21` (relative stereo) [Example 79, N-(1-ethyl-1H-benzimidazol-2-yl)-cis-3,4-dimethyl-1-oxo-1,2,3,4-tetrahydropyrazino[1,2-a]indole-7-carboxamide], the IC50 worked out at 0.64 nM. Then `CC1CNC(=O)c2cc3ccc(C(=O)Nc4cc(C(C)(C)C)on4)cc3n21` (stereo not shown) [Example 176, N-(5-tert-butyl-1,2-oxazol-3-yl)-4-methyl-1-oxo-1,2,3,4-tetrahydropyrazino[1,2-a]indole-7-carboxamide], with 25 nM; and `Cn1ccc(NC(=O)c2ccc3cc4n(c3c2)CCCNC4=O)n1` [Example 11, N-(1-methyl-1H-pyrazol-3-yl)-1-oxo-2,3,4,5-tetrahydro-1H-[1,4]diazepino[1,2-a]indole-8-carboxamide], with 540 nM; and `C[C@@H]1NC(=O)c2cc3ccc(C(=O)Nc4nc5ccccc5n4CCCN(C)C)cc3n2[C@H]1C` (relative stereo) [Example 91, N-{1-[3-(dimethylamino)propyl]-1H-benzimidazol-2-yl}-trans-3,4-dimethyl-1-oxo-1,2,3,4-tetrahydropyrazino[1,2-a]indole-7-carboxamide], with 8.5 nM.

As for `O=C(Nc1cc[nH]n1)c1ccc2cc3n(c2c1)CCCNC3=O` [Example 220, 1-oxo-N-(1H-pyrazol-3-yl)-2,3,4,5-tetrahydro-1H-[1,4]diazepino[1,2-a]indole-8-carboxamide], the IC50 worked out at 93 nM. Then `Cc1cc(NC(=O)c2ccc3cc4n(c3c2)C(C)CNC4=O)no1` (stereo not shown) [Example 174, 4-methyl-N-(5-methyl-1,2-oxazol-3-yl)-1-oxo-1,2,3,4-tetrahydropyrazino[1,2-a]indole-7-carboxamide], with 34 nM; and `C[C@H]1NC(=O)c2cc3ccc(C(=O)Nc4cnn(Cc5ccccc5)c4)cc3n2[C@H]1C` [Example 142, (3R,4S)-N-(1-benzyl-1H-pyrazol-4-yl)-3,4-dimethyl-1-oxo-1,2,3,4-tetrahydropyrazino[1,2-a]indole-7-carboxamide], with 65.5 nM.

On to `O=C(Nc1cc(-c2ccccc2)on1)c1ccc2cc3n(c2c1)CCCNC3=O` [Example 211, 1-oxo-N-(5-phenyl-1,2-oxazol-3-yl)-2,3,4,5-tetrahydro-1H-[1,4]diazepino[1,2-a]indole-8-carboxamide], for which the IC50 turned out to be 290 nM.

In the case of `Cn1c(-c2ccccc2)cnc1NC(=O)c1ccc2cc3n(c2c1)CCCNC3=O` [Example 107, N-(1-methyl-5-phenyl-1H-imidazol-2-yl)-1-oxo-2,3,4,5-tetrahydro-1H-[1,4]diazepino[1,2-a]indole-8-carboxamide], the IC50 came out at 500 nM. The same measure for `O=C(Nc1cc(Cc2ccccc2)on1)c1ccc2cc3n(c2c1)CCCNC3=O` [Example 212, N-(5-benzyl-1,2-oxazol-3-yl)-1-oxo-2,3,4,5-tetrahydro-1H-[1,4]diazepino[1,2-a]indole-8-carboxamide]: 30 nM; for `CC1CNC(=O)c2cc3ccc(C(=O)Nc4cc5ccccc5[nH]4)cc3n21` (stereo not shown) [Example 177, N-(1H-indol-2-yl)-4-methyl-1-oxo-1,2,3,4-tetrahydropyrazino[1,2-a]indole-7-carboxamide]: 8 nM. Then `CC1CNC(=O)c2cc3ccc(C(=O)Nc4nc5ccccc5[nH]4)cc3n21` (stereo not shown) [Example 57, N-(1H-benzimidazol-2-yl)-4-methyl-1-oxo-1,2,3,4-tetrahydropyrazino[1,2-a]indole-7-carboxamide], with 0.59 nM; and `COc1ccc(NC(=O)c2ccc3cc4n(c3c2)CCCNC4=O)cc1` [Example 149, N-(4-methoxyphenyl)-1-oxo-2,3,4,5-tetrahydro-1H-[1,4]diazepino[1,2-a]indole-8-carboxamide], with 110 nM; and `C[C@@H]1CNC(=O)c2cc3ccc(C(=O)Nc4cnn(Cc5ccccc5)c4)cc3n21` [Example 130, (4R)-N-(1-benzyl-1H-pyrazol-4-yl)-4-methyl-1-oxo-1,2,3,4-tetrahydropyrazino[1,2-a]indole-7-carboxamide], with 0.6 nM. Consider `Cn1cc(NC(=O)c2ccc3cc4n(c3c2)C(C)(C)CNC4=O)nc1C(=O)NC(C)(C)C` [Example 231, N-[2-(tert-butylcarbamoyl)-1-methyl-1H-imidazol-4-yl]-4,4-dimethyl-1-oxo-1,2,3,4-tetrahydropyrazino[1,2-a]indole-7-carboxamide], for which the IC50 was found to be 6 nM. The same measure for `CCCNC(=O)c1nc(NC(=O)c2ccc3cc4n(c3c2)C(C)CNC4=O)sc1C(C)C` (stereo not shown) [Example 235, 4-methyl-1-oxo-N-[5-(propan-2-yl)-4-(propylcarbamoyl)-1,3-thiazol-2-yl]-1,2,3,4-tetrahydropyrazino[1,2-a]indole-7-carboxamide]: 10.9 nM; for `O=C(Nc1cnn(C2CCOCC2)c1)c1ccc2cc3n(c2c1)CCCNC3=O` [Example 27, 1-oxo-N-[1-(tetrahydro-2H-pyran-4-yl)-1H-pyrazol-4-yl]-2,3,4,5-tetrahydro-1H-[1,4]diazepino[1,2-a]indole-8-carboxamide]: 46 nM. In the case of `O=C(Nc1cc(C2CCCCC2)no1)c1ccc2cc3n(c2c1)CCCNC3=O` [Example 209, N-(3-cyclohexyl-1,2-oxazol-5-yl)-1-oxo-2,3,4,5-tetrahydro-1H-[1,4]diazepino[1,2-a]indole-8-carboxamide], the IC50 is 39 nM. Regarding `O=C(Nc1cnn(Cc2ccccc2)c1)c1ccc2cc3n(c2c1)CC1(CCNCC1)CNC3=O` [Example 238, N-(1-benzyl-1H-pyrazol-4-yl)-1-oxo-2,3-dihydro-1H-spiro[1,4-diazepino[1,2-a]indole-4,4′-piperidine]-8-carboxamide], the IC50 was 350 nM.
